Measurements taken from patent publication US10364263B2, “Cyclic phosphates and cyclic phosphoramidates for the treatment of neurologic disorders” (Retrophin, Inc., priority 2015, dated 2019).

System: PANK2 silenced human neuroblastoma IMR32 cells (PANK2−/−)
Experiment: Coenzyme A assay in PANK2 silenced cells (LC-MS quantification of free CoA)
Format: cell-based
Settings: compound added twice (24 h + 24 h), relative to 0.1% DMSO controls
Description: A human neuroblastoma IMR32 cell line (ATCC) with stably PANK2 silencing was obtained by lentiviral-delivered small hairpin RNA and cultured in MEM (Invitrogen) supplemented with 10% fetal bovine serum, 2 mM glutamine, 1% penicillin-streptomycin, 1 mM sodium pyruvate, 1 mM non essential amino acids and 1.5 g/l sodium bicarbonate.
For lentiviral shRNA expression, Human Emryonic Kidney HEK-293T cells (ATCC) were transfected with the appropriate pGFP-Lenti-shRNA constructs and packaging plasmids according to manufacturer's protocol (Origene Technologies, Inc.). Four different gene-specific shRNA expression vectors designed against multiple splice variants of PANK2 (Gene ID 80025) were used for transfection. A non-silencing shRNA construct (scrambled shRNA) and an empty vector expressing GFP alone were used as negative controls. The GFP tag subcloned into the lentiviral vectors was used to monitor the transfection efficiency.
IMR32 cells were plated on 150 cm dishes 48 h before transduction with lentiviral particles.
Three days after transduction medium was removed and replaced with fresh medium containing […] puromycin. Medium was replaced every 48 h. Levels of PANK2 expression on selected clones was assessed by Western Blot analysis.
To quantify CoA, PANK2^−/− IMR32 cells were plated on 12-well culture plates (Corning) at a density of 0.2×10^6 cells per well. After 72 h, compounds were freshly dissolved in DMSO and added to the culture medium to yield a final solvent concentration of 0.1% (v/v). Controls with medium containing 0.1% DMSO without test compounds were also included in each plate. Compound treated cells were incubated for 24 h at 37° C. Treatment was repeated after 24 h with newly dissolved compound and cells were further incubated at 37° C. for additional 24 h. Before LC-MS analysis of CoA levels, cells were harvested, counted, and collected in a 15 ml falcon tube and centrifuged at 200×g for 5 min at 4° C. Supernatant was removed and cell pellet was washed in 10 ml of ice-cold PBS. To further confirm that the numbers of cells in each sample were equivalent, an equal fraction of pellet was collected from each sample and subjected to protein determination analysis. After centrifugation and supernatant removal, the cell pellet was rapidly frozen in Liquid Nitrogen and stored at −80° C. until analysis.
Intracellular CoA levels were calculated considering an intracellular volume of 1 million cells=2 μl.
The 1×10^6 cellular pellet was extracted with 120 μl of aqueous 20% TFA. This solution was stirred for 2 min, sonicated in ultrasonic bath for 2 min, then stirred again for 1 min, and centrifuged for 15 min at 14000 g and at 4° C.
100 μL samples of supernatant were dried under N2 at 20° C. in the dark.
Samples were re-dissolved in 100 μl of 10 mM NH4^+ AcO^− buffer pH 5.1+IS (Dextrorphan 50 ng/ml), stirred for 2 min, sonicated in ultrasonic bath for 1 min, then stirred again for 1 min, and injected into LC-MS.
LC-MS/MS was performed using an Agilent HPLC (1100 Series, USA). The LC system was interfaced with an API-4000 Q-Trap triple quadrupole mass spectrometer (AB Sciex, Toronto, Canada) equipped with a TurbolonSpray ionization source operating in positive ion mode. Analyst™ software version 1.6 (AB Sciex, Toronto, Canada) was used for data acquisition and processing. CoA was separated using a Luna C18 column (2.0×50 mm; 5 μm particle size), column at 25° C. and flow rate of 0.2 ml/min. Injection volume was 15 μl. The mobile phases consisted of water containing 10 mM ammonium acetate pH 7 (mobile phase A) and MeCN-2-propanol 9:1 (mobile phase B). Elution was performed using a gradient starting at 2% B, holding at 2% B until 0.1 min, increasing to 98% B at 3.2 min, holding at 98% B until 4.5 min, returning to 2% B at 4.6 min and holding at 2% B until 7.5 min. Precursor ions and MRM transitions used were: CoA m/z 768.1→261.6 and 768.1→136.1. […]

SMILES	PANK2−/− CoA (Fold Increase): fold increase in Coenzyme A (CoA) levels relative to controls
COC(=O)CCNC(=O)[C@@H]1O[P@](=O)(Oc2ccc(C[C@H](N)C(=O)OC)cc2)OCC1(C)C [2-163, Methyl (S)-2-amino-3-(4-(((2R,4R)-4-((3-methoxy-3-oxopropyl)carbamoyl)-5,5-dimethyl-2-oxido-1,3,2-dioxaphosphinan-2-yl)oxy)phenyl)propanoate]	81.21 Fold Increase
COC(=O)CCNC(=O)[C@@H]1OP(=O)(OCOC(=O)c2cc(C)nn2C)OCC1(C)C (stereo partly drawn) [2-145, (((4R)-4-((3-methoxy-3-oxopropyl)carbamoyl)-5,5-dimethyl-2-oxido-1,3,2-dioxaphosphinan-2-yl)oxy)methyl 1,3-dimethyl-1H-pyrazole-5-carboxylate]	42.44 Fold Increase
COC(=O)CCNC(=O)[C@@H]1O[P@](=O)(OCC(F)(F)F)OCC1(C)C [2-123, methyl 3-((2S,4R)-5,5-dimethyl-2-oxido-2-(2,2,2-trifluoroethoxy)-1,3,2-dioxaphosphinane-4-carboxamido)propanoate]	1.46 Fold Increase
COC(=O)CCNC(=O)[C@@H]1OP(=O)(OCOC(=O)[C@@H]2COC(=O)N2C(=O)OC(C)(C)C)OCC1(C)C (stereo partly drawn) [2-189, 3-(tert-butyl) 4-((((4R)-4-((3-methoxy-3-oxopropyl)carbamoyl)-5,5-dimethyl-2-oxido-1,3,2-dioxaphosphinan-2-yl)oxy)methyl) (4S)-2-oxooxazolidine-3,4-dicarboxylate]	3.86 Fold Increase
COC(=O)CCNC(=O)[C@@H]1O[P@](=O)(OCOC(=O)c2cc(C(C)(C)C)nn2C)OCC1(C)C [2-170, (((2R,4R)-4-((3-methoxy-3-oxopropyl)carbamoyl)-5,5-dimethyl-2-oxido-1,3,2-dioxaphosphinan-2-yl)oxy)methyl 3-(tert-butyl)-1-methyl-1H-pyrazole-5-carboxylate]	82.88 Fold Increase
CC(C)OC(=O)OCO[P@@]1(=O)OCC(C)(C)[C@H](C(=O)NCCC(=O)OC(C)(C)C)O1 [compound 105, tert-butyl 3-((2S,4R)-2-(((isopropoxycarbonyl)oxy)methoxy)-5,5-dimethyl-2-oxido-1,3,2-dioxaphosphinane-4-carboxamido)propanoate]	4.72 Fold Increase
COC(=O)CCNC(=O)[C@@H]1OP(=O)(OCOC(=O)NC(C)(C)COC(C)=O)OCC1(C)C (stereo partly drawn) [2-152, methyl 3-((4R)-2-((((l-acetoxy-2-methylpropan-2-yl)carbamoyl)oxy)methoxy)-5,5-dimethyl-2-oxido-1,3,2-dioxaphosphinane-4-carboxamido)propanoate]	1.24 Fold Increase
COC(=O)CCNC(=O)[C@@H]1OP(=O)(OCOC(=O)NCCOC(C)=O)OCC1(C)C (stereo partly drawn) [2-168, methyl 3-((4R)-2-((((2-acetoxyethyl)carbamoyl)oxy)methoxy)-5,5-dimethyl-2-oxido-1,3,2-dioxaphosphinane-4-carboxamido)propanoate]	2.69 Fold Increase
COC(=O)CCNC(=O)[C@@H]1O[P@](=O)(Oc2ccc(S(F)(F)(F)(F)F)cc2)OCC1(C)C (single isomer, unassigned) [Compound No. 2-125]	34.02 Fold Increase
COC(=O)CCNC(=O)[C@@H]1O[P@@](=O)(OCCNC(C)=O)OCC1(C)C [2-115, methyl 3-((2R,4R)-2-(2-acetamidoethoxy)-5,5-dimethyl-2-oxido-1,3,2-dioxaphosphinane-4-carboxamido)propanoate]	1.6 Fold Increase
COC(=O)CCNC(=O)[C@@H]1O[P@](=O)(Oc2ccc(C#N)cc2)OCC1(C)C [2-165, methyl 3-((2R,4R)-2-(4-cyanophenoxy)-5,5-dimethyl-2-oxido-1,3,2-dioxaphosphinane-4-carboxamido)propanoate]	6.87 Fold Increase
COC(=O)CCNC(=O)[C@@H]1O[P@](=O)(OCOC(=O)N[C@@H](CSC(=O)C(C)(C)C)C(=O)OCc2ccccc2)OCC1(C)C [2-206, benzyl N-(((((2R,4R)-4-((3-methoxy-3-oxopropyl)carbamoyl)-5,5-dimethyl-2-oxido-1,3,2-dioxaphosphinan-2-yl)oxy)methoxy)carbonyl)-S-pivaloyl-L-cysteinate]	64.41 Fold Increase
COC(=O)CCNC(=O)[C@@H]1O[P@@](=O)(OCOC(=O)c2scnc2C)OCC1(C)C (single isomer, unassigned) [2-149]	24.48 Fold Increase
COC(=O)CCNC(=O)[C@@H]1OP(=O)(Oc2ccc([N+](=O)[O-])cc2)OCC1(C)C (stereo partly drawn) [Compound No. 2-134, Methyl 3-((4R)-5,5-dimethyl-2-(4-nitrophenoxy)-2-oxido-1,3,2-dioxaphosphinane-4-carboxamido)propanoate]	5.37 Fold Increase
COC(=O)CCNC(=O)[C@@H]1O[P@@](=O)(OCOC(=O)N[C@@H](CSC(=O)C(C)(C)C)C(=O)O)OCC1(C)C [2-200, N-(((((2S,4R)-4-((3-methoxy-3-oxopropyl)carbamoyl)-5,5-dimethyl-2-oxido-1,3,2-dioxaphosphinan-2-yl)oxy)methoxy)carbonyl)-S-pivaloyl-L-cysteine]	1.84 Fold Increase
COC(=O)CCNC(=O)[C@@H]1O[P@@](=O)(Oc2ccc(C[C@H](N)C(=O)OC)cc2)OCC1(C)C (single isomer, unassigned) [2-162]	9.73 Fold Increase
COC(=O)CCNC(=O)[C@@H]1O[P@](=O)(N[C@@H](C)C(=O)OC)OCC1(C)C [1-53, methyl 3-((2S,4R)-2-(((S)-1-methoxy-1-oxopropan-2-yl)amino)-5,5-dimethyl-2-oxido-1,3,2-dioxaphosphinane-4-carboxamido)propanoate]	2.37 Fold Increase
COC(=O)CCNC(=O)[C@@H]1O[P@@](=O)(OCOC(=O)c2cnco2)OCC1(C)C (single isomer, unassigned) [2-151]	17.56 Fold Increase
COC(=O)CCNC(=O)[C@@H]1O[P@](=O)(Oc2ccc(C(F)(F)F)nc2)OCC1(C)C [2-198, methyl 3-((2R,4R)-5,5-dimethyl-2-oxido-2-((6-(trifluoromethyl)pyridin-3-yl)oxy)-1,3,2-dioxaphosphinane-4-carboxamido)propanoate]	13.6 Fold Increase
COC(=O)CCNC(=O)[C@@H]1OP(=O)(OCOC(=O)c2cc(C(C)(C)C)nn2C)OCC1(C)C (stereo partly drawn) [2-144, (((4R)-4-((3-methoxy-3-oxopropyl)carbamoyl)-5,5-dimethyl-2-oxido-1,3,2-dioxaphosphinan-2-yl)oxy)methyl 3-(tert-butyl)-1-methyl-1H-pyrazole-5-carboxylate]	77.8 Fold Increase
COC(=O)CCNC(=O)[C@@H]1O[P@@](=O)(OCOC(=O)N[C@@H](CSC(=O)C(C)(C)C)C(=O)OCC(=O)c2ccccc2)OCC1(C)C [2-199, 2-oxo-2-phenylethyl N-(((((2S,4R)-4-((3-methoxy-3-oxopropyl)carbamoyl)-5,5-dimethyl-2-oxido-1,3,2-dioxaphosphinan-2-yl)oxy)methoxy)carbonyl)-S-pivaloyl-L-cysteinate]	1.98 Fold Increase
